Laboratory results taken from patent publication US20150119435A1, “COMPOUNDS USEFUL FOR PROMOTING PROTEIN DEGRADATION AND METHODS USING SAME” (YALE UNIVERSITY, priority 2012, published 2015).

Columns and labels:
androgen receptor (AR) = target: T1, androgen receptor (AR) (Homo sapiens, UniProt P10275); experiment: SARD mediated AR degradation (western blot); conditions: for AR degradation (in words): at the concentrations assayed
T1 sequence (P10275 1-920): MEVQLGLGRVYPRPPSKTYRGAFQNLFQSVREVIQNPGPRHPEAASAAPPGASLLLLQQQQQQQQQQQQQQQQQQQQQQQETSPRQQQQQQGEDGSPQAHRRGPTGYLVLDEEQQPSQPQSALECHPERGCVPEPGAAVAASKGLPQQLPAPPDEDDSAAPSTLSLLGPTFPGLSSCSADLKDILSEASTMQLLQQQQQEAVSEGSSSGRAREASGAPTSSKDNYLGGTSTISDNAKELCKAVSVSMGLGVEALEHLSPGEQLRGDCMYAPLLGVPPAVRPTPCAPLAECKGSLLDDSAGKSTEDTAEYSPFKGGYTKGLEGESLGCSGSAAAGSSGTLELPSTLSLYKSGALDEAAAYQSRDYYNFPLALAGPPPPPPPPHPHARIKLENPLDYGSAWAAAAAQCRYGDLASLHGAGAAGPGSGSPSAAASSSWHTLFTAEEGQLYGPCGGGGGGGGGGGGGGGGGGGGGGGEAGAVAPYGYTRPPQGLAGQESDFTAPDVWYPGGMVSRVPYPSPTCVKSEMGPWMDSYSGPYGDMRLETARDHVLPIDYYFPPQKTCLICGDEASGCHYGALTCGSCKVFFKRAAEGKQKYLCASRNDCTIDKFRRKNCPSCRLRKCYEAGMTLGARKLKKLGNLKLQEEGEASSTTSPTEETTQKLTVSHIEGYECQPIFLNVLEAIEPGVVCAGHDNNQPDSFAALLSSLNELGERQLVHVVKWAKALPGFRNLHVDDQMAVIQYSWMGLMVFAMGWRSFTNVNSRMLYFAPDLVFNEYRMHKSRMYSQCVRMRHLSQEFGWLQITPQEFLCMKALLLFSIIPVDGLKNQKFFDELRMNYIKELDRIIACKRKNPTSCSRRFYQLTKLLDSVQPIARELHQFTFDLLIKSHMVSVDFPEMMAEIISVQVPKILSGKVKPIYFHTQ

[1] = test system: androgen dependent LnCAP cells; experiment: Proliferation of androgen dependent LnCAP prostate cancer cells; assay type: cell-based; conditions: 1 μM, several days
From the text: (§1) FIG. 26, comprising FIGS. 26A-26C, is a series of graphs illustrating in vitro activity of SARDS compounds. FIG. 26A: effect of SARDS on cell proliferation of LnCAPs. FIG. 26B: effect of SARDS on the proliferation of non-AR dependent cell lines. FIG. 26C: effect of SARDS on androgen independent prostate cancer cells.

[2] = test system: AR-independent HEK293 cells; experiment: General cell toxicity in AR-independent HEK293 cells; assay type: cell-based; conditions: HEK293, 1 μM, 48 h
Method: as §1
(§2) To access general cell toxicity, AR-independent HEK293 and HELA cells were treated with 1 μM SARD 279.

[3] = test system: AR-independent HELA cells; experiment: General cell toxicity in AR-independent HELA cells; assay type: cell-based; conditions: 1 μM, 48 h
Method: as §1, §2

For `CCOCCOCCNC(=O)CCCN1C(=S)N(c2ccc(C#N)c(C(F)(F)F)c2)C(=O)C1(C)C` [SARD 280, 4-(3-(4-Cyano-3-(trifluoromethyl)phenyl)-5,5-dimethyl-4-oxo-2-thioxoimidazolidin-1-yl)-N-(2-(2-ethoxyethoxyl)ethyl)butanamide], which “AR degradation (in words)” value (androgen receptor (AR)) is on record?
The value was “affected degradation only at higher concentrations and did not achieve complete AR degradation at the concentrations assayed”.

Which “Cell growth / proliferation of LnCAP cells” value [1] does the source give for `CC1(C)C(=O)N(c2ccc(C#N)c(C(F)(F)F)c2)C(=S)N1CCCC(=O)NCCOCCOCCOCCOC12CC3CC(CC(C3)C1)C2` [SARD 033, N-(2-(2-(2-(2-(Adamantan-1-yloxy)ethoxy)ethoxy)ethoxy)ethyl)-4-(3-(4-cyano-3-(trifluoromethyl)phenyl)-5,5-dimethyl-4-oxo-2-thioxoimidazolidin-1-yl)butanamide] here?
The value was “significantly attenuated cell growth”.

What does the source list for `CC1(C)C(=O)N(c2ccc(C#N)c(C(F)(F)F)c2)C(=S)N1CCCC(=O)NCCOCCOC(=O)CC12CC3CC(CC(C3)C1)C2` [SARD 279, 2-(2-(4-(3-(4-Cyano-3-(trifluoromethyl)phenyl)-5,5-dimethyl-4-oxo-2-thioxoimidazolidin-1-yl)butanamido)ethoxy)ethyl 2-(adamantan-1-yl)acetate]?
Cytotoxicity compared to vehicle [2]: did not display cytotoxic results; Cytotoxicity compared to vehicle [3]: did not display cytotoxic results; DC50 (androgen receptor (AR); read-out: DC50 (half maximum degradation concentration) of AR, AR degradation, western blot): 1000 nM

For `CC1(C)C(=O)N(c2ccc(C#N)c(C(F)(F)F)c2)C(=S)N1CCCCO` [RU 59063, 4-[3-(4-hydroxybutyl)-4,4-dimethyl-5-oxo-2-thioxoimidazolidin-1-yl]-2-(trifluoromethyl)benzonitrile, reference compound], which “AR degradation (in words)” value (androgen receptor (AR)) is on record?
The value was “no degradation was detected”.
